Measured values taken from ChEMBL document CHEMBL3045658, “Design, synthesis, antiviral activity, and SARs of 14-aminophenanthroindolizidines” (2012).

Legend:
Type in all cases: functional
Tobacco mosaic virus [1] = experiment: In vivo antiviral activity against Tobacco mosaic virus (TMV) pre-inoculated Nicotiana. tabacum L. leaves assessed as curative effect at 500 ug/mL measured after 3 to 4 days
Tobacco mosaic virus [2] = experiment: Antiviral activity against Tobacco mosaic virus (TMV) inoculated in 5-6 growth stage leaf assessed as inhibition effect at 100 ug/mL at 25 degC after 72 hr by half-leaf method
Tobacco mosaic virus [3] = experiment: In vivo antiviral activity against Tobacco mosaic virus (TMV) pre-inoculated Nicotiana. tabacum L. leaves assessed as curative effect at 100 ug/mL measured after 3 to 4 days
Tobacco mosaic virus [4] = experiment: In vivo antiviral activity against Tobacco mosaic virus (TMV) inoculated right side of Nicotiana. tabacum L. leaves assessed as protection effect at 500 ug/mL preincubated 12 hr before viral challenge measured after 3 to 4 days
Tobacco mosaic virus [5] = experiment: Antiviral activity against Tobacco mosaic virus (TMV) inoculated in 5-6 growth stage leaf assessed as inhibition effect at 500 ug/mL at 25 degC after 72 hr by half-leaf method
Tobacco mosaic virus [6] = experiment: In vivo antiviral activity against Tobacco mosaic virus (TMV) inoculated left side of Nicotiana. tabacum L. leaves assessed as inactivation effect at 500 ug/mL co-incubated with virus measured after 3 to 4 days
Tobacco mosaic virus [7] = experiment: In vivo antiviral activity against Tobacco mosaic virus (TMV) inoculated left side of Nicotiana. tabacum L. leaves assessed as inactivation effect at 100 ug/mL co-incubated with virus measured after 3 to 4 days
Tobacco mosaic virus [8] = experiment: In vivo antiviral activity against Tobacco mosaic virus (TMV) inoculated right side of Nicotiana. tabacum L. leaves assessed as protection effect at 100 ug/mL preincubated 12 hr before viral challenge measured after 3 to 4 days
Tobacco mosaic virus [9] = experiment: Antiviral activity against Tobacco mosaic virus (TMV) assessed as inhibition effect at 1 ug/mL
Tobacco mosaic virus [10] = experiment: Antiviral activity against Tobacco mosaic virus (TMV) assessed as inhibition effect at 500 ug/mL

SMILES	inhibition in vivo at 500 µg/mL (Tobacco mosaic virus [1]) [%]	inhibition at 100 µg/mL (Tobacco mosaic virus [2]) [%]	inhibition in vivo at 100 µg/mL (Tobacco mosaic virus [3]) [%]	inhibition in vivo at 500 µg/mL (Tobacco mosaic virus [4]) [%]	inhibition at 500 µg/mL (Tobacco mosaic virus [5]) [%]	inhibition in vivo at 500 µg/mL (Tobacco mosaic virus [6]) [%]	inhibition in vivo at 100 µg/mL (Tobacco mosaic virus [7]) [%]	inhibition in vivo at 100 µg/mL (Tobacco mosaic virus [8]) [%]	inhibition at 1 µg/mL (Tobacco mosaic virus [9]) [%]	inhibition at 500 µg/mL (Tobacco mosaic virus [10]) [%]
CNCC(=O)N[C@@H](CO)C(=O)N[C@H]1[C@H](O)[C@@H](O)[C@H](n2ccc(N)nc2=O)O[C@@H]1C(N)=O [NINGNANMYCIN]	56	23.9	18.9	66.6	70.2	68.5	37.7	25.2	–	–
NC(=O)c1ncn([C@@H]2O[C@H](CO)[C@@H](O)[C@H]2O)n1 [RIBAVIRIN]	36.7	19.6	8.2	38.9	41	33.8	9.8	7.5	–	–
COc1cc2c3c(c4ccc(O)cc4c2cc1OC)CN1CCC[C@@H]1C3	–	–	–	–	–	–	–	–	70	–
COc1ccc2c3c(c4cc(OC)c(OC)cc4c2c1)[C@H](NC(=O)C(C)(C)C)[C@@H]1CCCN1C3	45.6	28.7	31.4	52.6	48.3	37.2	23.6	24.7	–	–
COc1ccc2c3c(c4cc(OC)c(OC)cc4c2c1)[C@H](NC(C)=O)[C@@H]1CCCN1C3	69.6	55	50.8	72.7	75.1	72.2	40.4	55.3	–	–
COc1ccc2c3c(c4cc(OC)c(OC)cc4c2c1)CN1CCC[C@H]1[C@H]3NC(C)=O	25.2	7.4	0	28.6	23.5	38.1	16.7	15.3	–	–
CCCCN[C@H]1c2c(c3cc(OC)c(OC)cc3c3cc(OC)ccc23)CN2CCC[C@@H]12	60.2	28.4	25.9	65.5	62.3	58.9	30	34.9	–	–
CCCCN[C@H]1c2c(c3cc(OC)c(OC)cc3c3cc(OC)ccc23)CN2C(=O)CC[C@@H]12	47.5	30	20.3	50.3	52.5	47.2	25.6	26.2	–	–
CC(=O)N1CN(C(C)=O)C(=O)NC1=O	–	–	–	–	–	–	–	–	–	50
COc1ccc2c3c(c4cc(OC)c(OC)cc4c2c1)[C@H](N)[C@@H]1CCCN1C3	42.3	32.5	29.6	44.4	48.2	41.9	32.1	30.1	–	–
CCCCN[C@H]1c2c(c3cc(OC)c(OC)cc3c3cc(OC)ccc23)CN2CCC[C@H]12	50.2	19.9	16.7	54.2	51.4	42.3	15.2	20	–	–
COc1ccc2c3c(c4cc(OC)c(OC)cc4c2c1)C[C@H]1CCCN1C3 [(-)-ANTOFINE]	–	–	–	–	–	–	–	–	63	–
CCCCN[C@@H]1c2c(c3cc(OC)c(OC)cc3c3cc(OC)ccc23)CN2CCC[C@H]12	58.2	24.3	20.5	57.6	47.6	53.5	23.7	27.4	–	–
O=C1NCNC(=O)N1	–	–	–	–	–	–	–	–	–	50
CCCCN[C@@H]1c2c(c3cc(OC)c(OC)cc3c3cc(OC)ccc23)CN2C(=O)CC[C@H]12	41.7	17.5	23.6	48.2	38.2	49.4	25.4	20.5	–	–
COc1cc2c3c(c4cc(OC)c(OC)cc4c2cc1OC)[C@H](NC(C)=O)[C@@H]1CCCN1C3	37.4	21.1	25.3	41.5	34.7	46.4	31.1	29.3	–	–
CCCCN[C@@H]1c2c(c3cc(OC)c(OC)cc3c3cc(OC)ccc23)CN2C(=O)CC[C@@H]12	52.5	20	24.3	54.8	45.7	50	27.6	28.6	–	–
CCCCN[C@H]1c2c(c3cc(OC)c(OC)cc3c3cc(OC)ccc23)CN2C(=O)CC[C@H]12	36.2	20.4	14.3	46.8	44.1	43.3	19.8	17.6	–	–
COc1cc2c3c(c4cc(OC)c(OC)cc4c2cc1OC)[C@H](NC(=O)C(C)(C)C)[C@@H]1CCCN1C3	38.5	23.1	26.3	38.9	42.4	28.5	16.9	22	–	–
COc1cc2c3c(c4cc(OC)c(OC)cc4c2cc1OC)CN1CCCC1C3 (racemic) [(+/-)-TYLOPHORINE]	52	27.6	30.7	56.6	51.8	46.5	33.3	31.5	–	–
CCCCN[C@@H]1c2c(c3cc(OC)c(OC)cc3c3cc(OC)ccc23)CN2CCC[C@@H]12	66.6	41.2	30.4	69.5	72.3	64.2	32.6	36.8	–	–
COc1cc2c3c(c4cc(OC)c(OC)cc4c2cc1OC)[C@H](N)[C@@H]1CCCN1C3	15.5	0	0	18.4	12.9	17.6	11.2	7.3	–	–
COc1ccc2c3c(c4cc(OC)c(OC)cc4c2c1)CN1CCC[C@H]1[C@H]3NC(=O)C(C)(C)C	45	30	27.7	43.1	49.1	31.9	15.4	23.6	–	–
COc1ccc2c3c(c4cc(OC)c(OC)cc4c2c1)CN1CCC[C@H]1[C@H]3N	68	45	48.2	71.6	72.4	70.3	32.8	38.9	–	–
